Each structure is given as a SMILES string. pIC50: −log10 of the molar value.

The target in one assay is T1, Progesterone receptor (Homo sapiens, UniProt P06401).
T1 sequence (P06401 whole entry): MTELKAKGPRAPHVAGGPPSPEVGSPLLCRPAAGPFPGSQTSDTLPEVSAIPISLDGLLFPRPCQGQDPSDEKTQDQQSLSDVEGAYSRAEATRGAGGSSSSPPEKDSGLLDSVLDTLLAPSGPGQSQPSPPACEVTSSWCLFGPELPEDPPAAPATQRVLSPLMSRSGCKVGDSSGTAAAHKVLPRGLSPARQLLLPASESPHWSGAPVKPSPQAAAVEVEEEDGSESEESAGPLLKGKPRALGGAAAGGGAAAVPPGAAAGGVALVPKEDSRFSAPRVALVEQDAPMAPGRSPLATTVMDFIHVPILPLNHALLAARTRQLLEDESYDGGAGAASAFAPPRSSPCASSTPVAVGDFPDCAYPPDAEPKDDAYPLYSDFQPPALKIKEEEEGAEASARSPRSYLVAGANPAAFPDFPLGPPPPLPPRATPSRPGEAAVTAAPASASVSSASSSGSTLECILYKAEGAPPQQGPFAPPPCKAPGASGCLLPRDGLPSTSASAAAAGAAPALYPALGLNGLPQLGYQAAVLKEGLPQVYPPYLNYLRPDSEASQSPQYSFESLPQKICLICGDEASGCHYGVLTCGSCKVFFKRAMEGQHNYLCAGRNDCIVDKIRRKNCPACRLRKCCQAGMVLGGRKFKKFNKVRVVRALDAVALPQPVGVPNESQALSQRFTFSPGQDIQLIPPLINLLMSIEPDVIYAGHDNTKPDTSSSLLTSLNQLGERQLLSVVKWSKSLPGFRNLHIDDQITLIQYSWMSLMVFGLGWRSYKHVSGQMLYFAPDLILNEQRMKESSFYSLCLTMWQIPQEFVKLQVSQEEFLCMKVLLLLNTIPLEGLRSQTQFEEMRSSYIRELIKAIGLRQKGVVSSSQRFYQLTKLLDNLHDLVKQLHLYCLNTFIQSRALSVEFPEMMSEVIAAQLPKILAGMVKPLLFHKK
In words: Progesterone receptor agonist activity in human T47D breast carcinoma cell alkaline phosphatase assay. The format is functional, cell-based.
On to `CCC(CC)n1c(=O)[nH]c2ccc(-c3cc(F)cc(C#N)c3)cc21`, for which the pIC50 is 7.54. `CCC(CC)n1c(=O)[nH]c2ccc(-c3ccc(F)c(Cl)c3)cc21` showed a pIC50 of 6.37. `CCC(CC)n1c(=O)[nH]c2ccc(-c3ccc(C#N)n3C)cc21` had a pIC50 of 7.93. This pIC50 lies 1.56 log units higher than the previous one.

The target of another assay is T1, Progesterone receptor. The experiment in a line: Progesterone receptor antagonist activity in human T47D breast carcinoma cell alkaline phosphatase assay.
The molecule `N#Cc1cc(F)cc(-c2ccc3[nH]c(=O)n(C4CCCC4)c3c2)c1` had a pIC50 of 8.24. Still for that read-out and setting: in the case of `CC(C)n1c(O)nc2ccc(-c3ccc(F)c(C#N)c3)cc21` it was 7.22. The molecule `O=c1[nH]c2ccc(-c3ccc(F)c(F)c3)cc2n1C1CCC1` gave a pIC50 of 6.76.

Turning to `CC(C)n1c(O)nc2ccc(-c3ccc(C#N)n3C)cc21`, the pIC50 was 8.33. For the molecule `CC(C)n1c(=O)[nH]c2ccc(-c3ccc(F)c(Cl)c3)cc21`, the pIC50 was 6.98. Turning to `Cn1c(C#N)ccc1-c1ccc2[nH]c(=O)n(C3CCCC3)c2c1`, the pIC50 is 8.25.

On to `CC(C)n1c(O)nc2ccc(-c3ccccc3F)cc21`, for which the pIC50 was 6.38.

`O=c1[nH]c2ccc(-c3ccc(F)c(F)c3)cc2n1C1CCCC1`: the pIC50 is 7.01. `CC(C)n1c(O)nc2ccc(-c3ccc(F)cc3)cc21` showed a pIC50 of 6.53. On the same count and under the same terms, in the case of `N#Cc1cc(F)cc(-c2ccc3[nH]c(=O)n(-c4cccc(Cl)c4)c3c2)c1` it was 5.52; in that of `CC(C)n1c(=O)[nH]c2ccc(-c3cccc(F)c3)cc21`, 7.11.

The molecule `N#Cc1cc(F)cc(-c2ccc3[nH]c(=O)n(C4CCCCC4)c3c2)c1` gave a negative logarithm of the IC50 (pIC50) of 7.08.

`CC(C)n1c(O)nc2ccc(-c3ccc(F)c(F)c3)cc21` gave a pIC50 of 6.68. The molecule `N#Cc1cc(F)cc(-c2ccc3[nH]c(=O)n(C4CCC4)c3c2)c1` showed a pIC50 of 8.48. With `CC(C)n1c(=O)[nH]c2ccc(-c3cc(Cl)cc(Cl)c3)cc21`, the pIC50 is 7.00.

The molecule `Cc1cc(C#N)sc1-c1ccc2nc(O)n(C(C)C)c2c1` showed a pIC50 of 7.61. Molecule `Oc1nc2ccc(-c3ccc(F)c(Cl)c3)cc2n1C1CCCC1` gave a pIC50 of 6.87.

Regarding `CC(C)n1c(O)nc2ccc(-c3cc(F)cc(C#N)c3)cc21`, the pIC50 was 7.53.

In the case of `N#Cc1cc(F)cc(-c2ccc3[nH]c(=O)n(-c4ccccc4)c3c2)c1`, the pIC50 was 6.86. Take `Cn1c(C#N)ccc1-c1ccc2[nH]c(=O)n(C3CCC3)c2c1`: the pIC50 is 7.96. Against the preceding molecule, the pIC50 is 1.10 log units higher. In turn, `Oc1nc2ccc(-c3ccc(F)c(Cl)c3)cc2n1C1CCC1` had a negative logarithm of the IC50 (pIC50) of 6.97.

The values above are taken from ChEMBL document CHEMBL1142761, “SAR studies of 6-aryl-1,3-dihydrobenzimidazol-2-ones as progesterone receptor antagonists” (Bioorg Med Chem Lett, 2005).
